Literature values in patent US20060110374A1, “Method to accelerate stem cell recruitment and homing” (priority 2004, published 2006).

What was measured:
[1] = patients, intra-coronary injection followed by 2 weeks of subcutaneous administration
EPCs [2] = test system: EPCs
EPCs [3] = test system: EPCs; remark: listed apart in the source

Substance	coronary collateral flow [1]	numbers of EPCs (EPCs [2]; mice and rabbits)	neovascularization with bone marrow-derived cells (EPCs [2]; mice, corneal neovascularization model)	time to rise of EPC levels in the bloodstream (EPCs [3]; after administration) [h]	mobilization of EPCs into the peripheral circulation (EPCs [3]; animal models, exogenous administration)
GM-CSF: granulocyte macrophage colony stimulating factor	significant increase	Increased numbers	enhanced neovascularization	–	–
VEGF	–	–	–	≤ 24	promotes rapid mobilization
